The record followed here is PMC10975012, “The Active Glucuronide Metabolite of the Brain Protectant IMM-H004 with Poor Blood–Brain Barrier Permeability Demonstrates a High Partition in the Rat Brain via Multiple Mechanisms” (Pharmaceutics, 2024).

Like-named read-outs stand apart in the source and are kept apart here.

One data set concerns the target T1, OATP1B1 (Homo sapiens, UniProt Q9Y6L6).
T1 construct: expressed in transfected cells; host or cells: MDCKII
T1 sequence (Q9Y6L6 1-691): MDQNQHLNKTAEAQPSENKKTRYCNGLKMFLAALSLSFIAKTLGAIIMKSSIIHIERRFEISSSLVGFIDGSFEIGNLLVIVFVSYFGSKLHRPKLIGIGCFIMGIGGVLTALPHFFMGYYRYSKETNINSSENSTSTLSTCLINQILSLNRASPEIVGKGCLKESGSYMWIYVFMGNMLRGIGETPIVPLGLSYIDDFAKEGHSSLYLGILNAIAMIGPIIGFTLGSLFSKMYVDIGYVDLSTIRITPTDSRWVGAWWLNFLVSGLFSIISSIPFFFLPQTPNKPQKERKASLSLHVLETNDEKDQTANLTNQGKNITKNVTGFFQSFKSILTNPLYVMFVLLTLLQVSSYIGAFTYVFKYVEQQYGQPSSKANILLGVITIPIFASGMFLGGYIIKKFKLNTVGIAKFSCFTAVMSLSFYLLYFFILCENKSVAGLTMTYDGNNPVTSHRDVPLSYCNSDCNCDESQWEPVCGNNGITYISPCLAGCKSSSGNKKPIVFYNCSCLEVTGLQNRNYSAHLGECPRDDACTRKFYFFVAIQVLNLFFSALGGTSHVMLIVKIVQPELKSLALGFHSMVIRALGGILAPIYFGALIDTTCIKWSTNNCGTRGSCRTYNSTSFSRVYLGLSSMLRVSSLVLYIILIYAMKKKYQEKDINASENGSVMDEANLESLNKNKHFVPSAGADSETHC
The data set can be described thus: Uptake in MDCKⅡ-OATP1B1 cells. The class given is cell-based. As to conditions: MDCKⅡ-OATP1B1, 30, 60 µmol/L, 20 or 40 min. Here is the method:
(§1) Figure S4 Uptake of IMM-H004G in MDCKⅡ-OATP1B1 and MDCKⅡ-OATP1B3 cells. (a)
(§2) RSV (rosuvastatin, 30 µmol/L) is used as a positive group in MDCKⅡ-OATP1B1 cells. (b)
(§3) E17βG (estradiol-17β-glucuronide, 5 µmol/L) is used as a positive group in
(§4) MDCKⅡ-OATP1B3 cells. (c) IMM-H004G (30, 60 µmol/L) was incubated with
(§5) MDCKⅡ-OATP1B1 and MDCKⅡ-OATP1B3 cells for 20 or 40 min. The OATP
(§6) pan-inhibitor CsA (cyclosporin A) is 10 µmol/L. n=3 for positive substrates, and n=2 for
(§7) IMM-H004G. ***p < 0.001, **p < 0.01, *p < 0.05 vs. control group. ns, not significant.
(§8) (1 picture or pasted object on this page, not shown here)

The test system of a further data set is OATP. The data set can be described thus: Identification of transporters using inhibitors in hCMEC/D3 cells: OATP. Type of data set: cell-based, human. To be noted: substrate 10 μmol/L, inhibitor 100 μmol/L. Here is the method:
The toxicity of all compounds, including inhibitors and substrates, toward hCMEC/D3 cells, was assessed using the 3-(4,5-Dimethylthiazol-2-yl)-2,5-diphenyltetrazolium bromide (MTT) reduction assay as described previously. To assess the effects of pyrilamine-sensitive proton-coupled organic cation (H^+/OC) antiporter, organic anion transporter (OAT), organic anion-transporting polypeptides (OATPs), organic cation transporter (OCT), and novel organic cation–carnitine transporter (OCTN) inhibitors on the uptake process, IMM-H004 or IMM-H004G (10 µmol/L) combined with the inhibitors were added to the medium after preincubating the cells with the inhibitors for 30 min. For evaluating the impact of the multidrug and toxin extrusion transporter (MATE), P-glycoprotein (P-gp), multidrug resistance protein (MRP), and breast cancer resistance protein (BCRP) on the uptake, IMM-H004 or IMM-H004G (10 µmol/L) was preincubated with the cells for 2 h before the addition of the inhibitors. After removing the supernatant, the cells were washed twice with prewarmed HBSS and incubated with fresh HBSS for 20 min. At the end of incubation, the supernatants were collected. […] The protein content of the lysed cells was determined using a bicinchoninic acid (BCA) assay kit (Beyotime Inc., Shanghai, China). The results were expressed as a percentage of the vehicle control.

The target in another data set is T2, OATP1B3 (Homo sapiens, UniProt Q9NPD5).
T2 construct: expressed in transfected cells; host or cells: MDCKII
T2 sequence (Q9NPD5 1-702): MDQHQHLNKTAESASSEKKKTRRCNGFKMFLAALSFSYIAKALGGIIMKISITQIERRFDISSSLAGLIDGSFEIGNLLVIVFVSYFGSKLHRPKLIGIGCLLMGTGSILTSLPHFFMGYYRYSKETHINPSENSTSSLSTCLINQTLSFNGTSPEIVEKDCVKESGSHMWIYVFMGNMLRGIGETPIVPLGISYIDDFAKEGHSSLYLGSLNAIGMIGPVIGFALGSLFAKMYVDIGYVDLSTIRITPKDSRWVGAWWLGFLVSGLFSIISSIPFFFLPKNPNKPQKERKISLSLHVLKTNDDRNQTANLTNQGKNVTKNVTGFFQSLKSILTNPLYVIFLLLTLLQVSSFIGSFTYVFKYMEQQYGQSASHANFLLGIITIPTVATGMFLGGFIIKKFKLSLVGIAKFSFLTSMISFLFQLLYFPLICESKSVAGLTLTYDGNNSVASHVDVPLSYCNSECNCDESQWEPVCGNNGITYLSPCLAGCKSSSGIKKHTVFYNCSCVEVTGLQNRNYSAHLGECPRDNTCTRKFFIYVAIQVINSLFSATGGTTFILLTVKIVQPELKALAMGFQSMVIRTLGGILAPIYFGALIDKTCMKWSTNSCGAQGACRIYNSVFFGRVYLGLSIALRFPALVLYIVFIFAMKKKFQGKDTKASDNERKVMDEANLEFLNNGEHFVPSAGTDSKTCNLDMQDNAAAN
The data set can be described thus: Uptake in MDCKⅡ-OATP1B3 cells. To be noted: MDCKⅡ-OATP1B3, 30, 60 µmol/L, 20 or 40 min. Type of data set: cell-based. As to the method: as §1, §2, §3, §4, §5, §6, §7, §8

The next data set has as its system P-gp. The experiment in a line: Bidirectional transport in MDCKⅡ-MDR1 cell monolayers. As to conditions: dog. The class given is in vitro ADME. As to the method: To further validate the effect of P-gp on the transport of IMM-H004G or IMM-H004, MDCKⅡ-MDR1 cells were seeded onto polycarbonate membrane transwell inserts in 24-well plates and used for transport studies after 5 days or when the effective transepithelial electric resistance (TEER) values exceeded 300 Ω·cm^2. The monolayers were initially rinsed twice with HBSS. Subsequently, IMM-H004G or IMM-H004 (10 µmol/L) was added to either the apical or basolateral side of the monolayer. Aliquots of 50 µL were collected from the opposite compartment at various time points, covering a maximum duration of 120 min. Digoxin (5 μmol/L) was used as a positive substrate, while PSC833 (5 µmol/L) was used as an inhibitor in MDCKⅡ-MDR1 cells. The apparent permeability value (Papp) was calculated using the following equation:(2) Papp=dQ/dt/AC0 where dQ/dt is the slope of the cumulative transport amount over time during the study period. A is the base area of the insert, and C0 is the initial addition concentration.
The efflux ratio (ER) was calculated as follows:ER = Papp(B−A)/Papp(A−B) (3)

For the molecule `COc1cc(OC2OC(C(=O)O)C(O)C(O)C2O)cc2oc(=O)c(N3CCN(C)CC3)c(C)c12` (centres unmarked) [IMM-H004G], the “uptake increase in OATP1B1-overexpressing cells compared to control cells” value on OATP1B1 was “did not exceed a tenfold increase”. For the same molecule, in the data set with OATP, the “reduction of uptake by OATP inhibitor rifamycin” value amounted to 39.6%. The “uptake increase in OATP1B3-overexpressing cells compared to control cells” value on OATP1B3 is “did not exceed a tenfold increase”.
Consider `COc1cc(O)cc2oc(=O)c(N3CCN(C)CC3)c(C)c12` [IMM-H004], for which the efflux ratio at 120 min with P-gp (MDCK-MDR1, with PSC833 5 µmol/L, MDCKⅡ-MDR1, PSC833 5 µmol/L, read-out: efflux ratio (ER) in the presence of PSC833) was found to be 1.1; in the data set with P-gp (MDCK-MDR1, MDCKⅡ-MDR1, no inhibitor, IMM-H004 10 µmol/L, digoxin 5 μmol/L, read-out: efflux ratio (ER)) it was 2.96.
